Data published in ChEMBL document CHEMBL3352523, “Synthesis and biological evaluation of podophyllotoxin congeners as tubulin polymerization inhibitors” (Bioorg Med Chem, 2014).
The source made the active and inactive calls. No cut-off for these calls is given here.

What was measured:
[1] = (§1) Antiproliferative activity against human MIAPaCa2 cells assessed as growth inhibition after 48 hrs by SRB assay; type: functional; conditions: MIA PaCa-2, 48 h
MCF7 = experiment: Antiproliferative activity against human MCF7 cells assessed as growth inhibition after 48 hrs by SRB assay; type: functional; conditions: MCF7, 48 h
HeLa [2] = experiment: Antiproliferative activity against human HeLa cells assessed as growth inhibition after 48 hrs by SRB assay; type: functional
Tubulin = Tubulin (Bos taurus, UniProt Q6B856+Q862L2+Q862F3); experiment: Inhibition of bovine brain tubulin polymerization by fluorescence analysis
HeLa [3] = experiment: Antimitotic activity against human HeLa cells assessed as accumulation at G2/M phase at 5 uM after 24 hrs by PI staining based flow cytometry (reference value: 18.35%); type: functional
HeLa [4] = experiment: Induction of microtubule depolymerization in human HeLa cells at 5 uM after 24 hrs by DAPI staining; type: cell-based
HeLa [5] = experiment: Induction of microtubule destabilization in human HeLa cells at 5 uM after 24 hrs by immunoblot analysis; type: cell-based
MIA PaCa-2 = experiment: as §1; type: functional

Row | SMILES | GI50 [1] | GI50 (MCF7) | GI50 (HeLa [2]) | IC50 (Tubulin) | Activity (HeLa [3]) | Activity (HeLa [4]) | Activity (HeLa [5]) | GI50 (MIA PaCa-2)
1 | COC(=O)[C@H]1C(c2nc3ccc(Br)cc3[nH]2)=Cc2cc3c(cc2[C@H]1c1cc(OC)c(OC)c(OC)c1)OCO3 | < 10 nM | 540 nM | 210 nM | 860 nM | 73.96% | Active | Active | –
2 | COC(=O)[C@H]1C(c2nc3ccc(C(F)(F)F)cc3[nH]2)=Cc2cc3c(cc2[C@H]1c1cc(OC)c(OC)c(OC)c1)OCO3 | – | 4800 nM | 5080 nM | – | – | – | – | inactive
3 | COC(=O)Nc1nc2cc(C(=O)c3cccs3)ccc2[nH]1 [NOCODAZOLE] | 950 nM | 940 nM | 810 nM | – | – | – | – | –
4 | COC(=O)[C@H]1C(c2nc3ccc(F)cc3[nH]2)=Cc2cc3c(cc2[C@H]1c1cc(OC)c(OC)c(OC)c1)OCO3 | 3900 nM | 20 nM | 4300 nM | – | – | – | – | –
5 | COc1cc([C@@H]2c3cc4c(cc3[C@H](O)[C@H]3COC(=O)[C@H]23)OCO4)cc(OC)c1OC [PODOFILOX] | 510 nM | 310 nM | 740 nM | – | – | – | – | –
6 | COC(=O)[C@H]1C(c2nc3ccc(Cl)cc3[nH]2)=Cc2cc3c(cc2[C@H]1c1cc(OC)c(OC)c(OC)c1)OCO3 | 1300 nM | 2090 nM | 2160 nM | – | – | – | – | –
7 | COC(=O)[C@H]1C(c2nc3cc(C)c(C)cc3[nH]2)=Cc2cc3c(cc2[C@H]1c1cc(OC)c(OC)c(OC)c1)OCO3 | 1500 nM | 160 nM | 3600 nM | – | – | – | – | –
8 | COC(=O)[C@H]1C(c2nc3ccc(C)cc3[nH]2)=Cc2cc3c(cc2[C@H]1c1cc(OC)c(OC)c(OC)c1)OCO3 | 18100 nM | 3070 nM | 2800 nM | – | – | – | – | –
9 | COC(=O)[C@H]1C(c2nc3cc4ccccc4cc3[nH]2)=Cc2cc3c(cc2[C@H]1c1cc(OC)c(OC)c(OC)c1)OCO3 | 2560 nM | 1200 nM | 3800 nM | – | – | – | – | –
10 | COC(=O)[C@H]1C(c2nc3ccc(F)c(Cl)c3[nH]2)=Cc2cc3c(cc2[C@H]1c1cc(OC)c(OC)c(OC)c1)OCO3 | – | 2300 nM | 24200 nM | – | – | – | – | inactive
11 | COC(=O)[C@H]1C(c2nc3cc(Cl)c(Cl)cc3[nH]2)=Cc2cc3c(cc2[C@H]1c1cc(OC)c(OC)c(OC)c1)OCO3 | 3200 nM | 580 nM | 19700 nM | – | – | – | – | –
12 | COC(=O)[C@H]1C(c2nc3ccccc3[nH]2)=Cc2cc3c(cc2[C@H]1c1cc(OC)c(OC)c(OC)c1)OCO3 | 1200 nM | 200 nM | 200 nM | 1290 nM | 56.05% | – | – | –
13 | COc1cc([C@@H]2c3cc4c(cc3[C@@H](O[C@@H]3O[C@@H]5CO[C@@H](C)O[C@H]5[C@H](O)[C@H]3O)[C@H]3COC(=O)[C@H]23)OCO4)cc(OC)c1O [ETOPOSIDE] | 1100 nM | 250 nM | 620 nM | – | – | – | – | –
14 | COC(=O)[C@H]1C(c2nc3cc(C(F)(F)F)cc(Br)c3[nH]2)=Cc2cc3c(cc2[C@H]1c1cc(OC)c(OC)c(OC)c1)OCO3 | 3100 nM | 2100 nM | 6400 nM | – | – | – | – | –
15 | COC(=O)[C@H]1C(c2nc3ccc(OC)cc3[nH]2)=Cc2cc3c(cc2[C@H]1c1cc(OC)c(OC)c(OC)c1)OCO3 | 1600 nM | 2100 nM | 1040 nM | 910 nM | 68.91% | Active | Active | –
16 | COC(=O)[C@H]1C(C=O)=Cc2cc3c(cc2[C@H]1c1cc(OC)c(OC)c(OC)c1)OCO3 | 730 nM | 910 nM | 690 nM | – | – | – | – | –
